Read-outs that look alike come from different tables or passages of the source.
Legend:
Assay type in all cases: biochemical
[1] = target: CDK7/cyclinH/MAT1 complex (Homo sapiens, UniProt P50613); assay: In-vitro enzymatic inhibitory activity testing, CDK7 inhibition assay (Caliper EZ Reader II); conditions: CDK7/cyclinH/MAT1 6 nM, 180 min at 27° C.
Experimental: (§1) CDK12/CyclinK was diluted in an assay buffer (80 mM MES PH 6.5, 0.01% Tween 20, 50 ug/mL BSA, 10 mM MgCl2) to afford a corresponding enzyme solution with the 2.4 concentration. A compound was dissolved in dimethyl sulfoxide (DMSO) at a concentration of 10 mM. […] 2 ul of a test compound solution was mixed with 5 ul of the enzyme solution; after incubation for 10 min, 5 ul of the polypeptide substrate and ATP mixed solution was added; incubation was carried out for 180 min at 27° C.; and then, the reaction was terminated by adding 4 uL of EDTA with a concentration of 120 mM to each sample. […] A CDK9/cyclinT1 complex (8 nM) and a “5-FAM-CDK9tide” peptide substrate (2 IM, synthetic fluorophore-labeled peptide with the following sequence: 5-FAM-GSRTPMY-NH2, wherein 5-FAM was as defined above and NH2 represented C-terminal amide) were used for a CDK9 inhibition assay. […] A CDK2/cyclinE1 complex (0.5 nM) and “5-FAM-CDK7tide” (2 μM) as defined above were used for CDK2 inhibition assay.
(§2) A reaction mixture was analyzed on Caliper EZ Reader II by electrophoretic separation of a fluorogenic substrate and a phosphorylated product. Data were calculated by using GraphPad Prism version 6.0, and IC50 values were adjusted and obtained by using a nonlinear regression model of a dose response curve.

[2] = target: CDK2/cyclinE1 complex (Homo sapiens, UniProt P24941); assay: In-vitro enzymatic inhibitory activity testing, CDK2 inhibition assay (Caliper EZ Reader II); conditions: CDK2/cyclinE1 0.5 nM, 180 min at 27° C.
Experimental: CDK12/CyclinK was diluted in an assay buffer (80 mM MES PH 6.5, 0.01% Tween 20, 50 ug/mL BSA, 10 mM MgCl2) to afford a corresponding enzyme solution with the 2.4 concentration. […] A CDK9/cyclinT1 complex (8 nM) and a “5-FAM-CDK9tide” peptide substrate (2 IM, synthetic fluorophore-labeled peptide with the following sequence: 5-FAM-GSRTPMY-NH2, wherein 5-FAM was as defined above and NH2 represented C-terminal amide) were used for a CDK9 inhibition assay. […] A CDK2/cyclinE1 complex (0.5 nM) and “5-FAM-CDK7tide” (2 μM) as defined above were used for CDK2 inhibition assay.
as §2

[3] = target: CDK9/cyclinT1 complex (Homo sapiens, UniProt P50750); assay: In-vitro enzymatic inhibitory activity testing, CDK9 inhibition assay (Caliper EZ Reader II); conditions: CDK9/cyclinT1 8 nM, 180 min at 27° C.
Chain of CDK9/cyclinT1 complex (P50750 whole entry, species assumed): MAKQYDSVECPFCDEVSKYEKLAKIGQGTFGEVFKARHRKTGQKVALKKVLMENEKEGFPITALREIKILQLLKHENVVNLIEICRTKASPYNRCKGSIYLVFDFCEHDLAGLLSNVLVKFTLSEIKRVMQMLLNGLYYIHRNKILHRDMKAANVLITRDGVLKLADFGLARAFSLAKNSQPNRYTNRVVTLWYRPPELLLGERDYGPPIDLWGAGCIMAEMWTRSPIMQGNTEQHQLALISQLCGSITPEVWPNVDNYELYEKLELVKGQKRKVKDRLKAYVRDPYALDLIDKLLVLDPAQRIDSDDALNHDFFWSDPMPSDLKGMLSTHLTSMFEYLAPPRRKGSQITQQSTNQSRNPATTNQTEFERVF
Chain of CDK9/cyclinT1 complex (O60563 whole entry partner, species assumed): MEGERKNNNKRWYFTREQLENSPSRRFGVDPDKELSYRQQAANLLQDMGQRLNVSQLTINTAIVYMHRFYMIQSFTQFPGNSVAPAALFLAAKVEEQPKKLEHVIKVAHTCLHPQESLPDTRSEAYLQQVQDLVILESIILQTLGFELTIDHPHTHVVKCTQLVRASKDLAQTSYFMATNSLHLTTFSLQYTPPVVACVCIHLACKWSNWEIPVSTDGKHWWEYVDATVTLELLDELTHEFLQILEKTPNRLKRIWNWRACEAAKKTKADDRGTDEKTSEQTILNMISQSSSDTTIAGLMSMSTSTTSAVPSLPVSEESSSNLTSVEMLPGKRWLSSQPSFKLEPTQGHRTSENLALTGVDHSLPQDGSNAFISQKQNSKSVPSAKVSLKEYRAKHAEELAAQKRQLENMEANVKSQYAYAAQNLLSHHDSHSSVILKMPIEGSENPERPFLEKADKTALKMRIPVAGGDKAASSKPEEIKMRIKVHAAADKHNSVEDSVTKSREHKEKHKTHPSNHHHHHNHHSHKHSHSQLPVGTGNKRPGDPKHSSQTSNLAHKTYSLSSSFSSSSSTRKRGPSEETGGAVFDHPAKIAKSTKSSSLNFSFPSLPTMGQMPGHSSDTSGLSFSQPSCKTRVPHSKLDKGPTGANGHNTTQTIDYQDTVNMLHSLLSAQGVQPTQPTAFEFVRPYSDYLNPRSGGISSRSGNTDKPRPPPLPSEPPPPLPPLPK
Experimental: as §1, §2

[4] = target: T1, CDK12 (aa686-1082)/cyclinK complex (Homo sapiens, UniProt Q9NYV4); assay: In-vitro enzymatic inhibitory activity testing, CDK12 inhibition assay (Caliper EZ Reader II); conditions: 180 min at 27° C.
T1 construct: A CDK12 (aa686-1082)/cyclinK complex (50 nM)
T1 sequence (Q9NYV4 686-1082, species assumed): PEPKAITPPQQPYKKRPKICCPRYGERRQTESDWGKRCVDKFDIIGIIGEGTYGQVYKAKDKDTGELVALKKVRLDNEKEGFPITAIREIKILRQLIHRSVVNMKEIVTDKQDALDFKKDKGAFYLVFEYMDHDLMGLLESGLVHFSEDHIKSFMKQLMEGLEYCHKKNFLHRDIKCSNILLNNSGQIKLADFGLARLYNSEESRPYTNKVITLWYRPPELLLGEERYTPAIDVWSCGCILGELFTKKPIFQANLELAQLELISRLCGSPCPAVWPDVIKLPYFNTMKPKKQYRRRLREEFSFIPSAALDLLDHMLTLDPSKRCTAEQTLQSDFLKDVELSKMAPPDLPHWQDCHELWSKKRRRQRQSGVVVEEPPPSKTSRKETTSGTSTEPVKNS
T1 sequence (O75909 whole entry partner, species assumed, the tested form may be a part): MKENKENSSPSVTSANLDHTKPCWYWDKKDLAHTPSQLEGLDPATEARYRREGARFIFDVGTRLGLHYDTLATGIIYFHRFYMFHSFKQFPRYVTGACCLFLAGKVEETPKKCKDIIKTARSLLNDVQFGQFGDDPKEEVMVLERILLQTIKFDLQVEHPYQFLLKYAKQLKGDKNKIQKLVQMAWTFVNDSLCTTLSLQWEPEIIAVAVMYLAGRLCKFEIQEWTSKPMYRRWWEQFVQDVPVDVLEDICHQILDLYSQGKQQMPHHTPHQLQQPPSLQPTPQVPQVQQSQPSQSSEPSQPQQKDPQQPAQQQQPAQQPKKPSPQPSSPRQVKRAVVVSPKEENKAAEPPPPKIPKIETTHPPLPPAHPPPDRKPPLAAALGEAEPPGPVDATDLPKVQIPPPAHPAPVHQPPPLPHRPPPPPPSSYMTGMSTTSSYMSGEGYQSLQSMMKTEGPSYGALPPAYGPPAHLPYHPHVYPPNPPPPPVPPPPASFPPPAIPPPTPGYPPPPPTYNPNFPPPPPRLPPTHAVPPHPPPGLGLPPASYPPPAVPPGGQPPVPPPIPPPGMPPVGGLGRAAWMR
Experimental: An assay was carried out in a U-bottom 384-well plate (coming, 4512#), and the reaction temperature was 27° C. CDK7/CyclinH was diluted in an assay buffer (20 mM MES PH 6.75, 0.01% Tween 20, 50 ug/mL BSA, 6 mM MgCl2) to afford a corresponding enzyme solution with the 2.4× concentration. CDK2/CyclinE1 was diluted in an assay buffer (20 mM MES PH 6.75, 0.01% Tween 20, 50 ug/mL BSA, 6 mM MgCl2) to afford a corresponding enzyme solution with the 2.4× concentration. CDK9/CyclinT1 was diluted in an assay buffer (20 mM MES PH 6.75, 0.01% Tween 20, 50 ug/mL BSA, 10 mM MgCl2) to afford a corresponding enzyme solution with the 2.4× concentration. CDK12/CyclinK was diluted in an assay buffer (80 mM MES PH 6.5, 0.01% Tween 20, 50 ug/mL BSA, 10 mM MgCl2) to afford a corresponding enzyme solution with the 2.4 concentration. A compound was dissolved in dimethyl sulfoxide (DMSO) at a concentration of 10 mM. During use, the compound was diluted with DMSO into 10 concentration gradients from 25 nM to 500 uM, and respectively diluted by 8.3 folds in the assay buffer to afford a compound solution with a 6× concentration. A polypeptide substrate and ATP were diluted in the assay buffer to afford a polypeptide substrate and ATP mixed solution with a 2.4× concentration. 2 ul of a test compound solution was mixed with 5 ul of the enzyme solution; after incubation for 10 min, 5 ul of the polypeptide substrate and ATP mixed solution was added; incubation was carried out for 180 min at 27° C.; and then, the reaction was terminated by adding 4 uL of EDTA with a concentration of 120 mM to each sample. […]. Specifically, a CDK7/cyclinH/MAT1 complex (6 nM) and a “5-FAMCD K 7 tide” peptide substrate (2 μM, synthetic fluorophore-labeled peptide with the following sequence: 5-FAM-[…], wherein “5-FAM” refers to 5-carboxyfluorescein) were used for a CDK7 inhibition assay. A CDK9/cyclinT1 complex (8 nM) and a “5-FAM-CDK9tide” peptide substrate (2 IM, synthetic fluorophore-labeled peptide with the following sequence: 5-FAM-GSRTPMY-NH2, wherein 5-FAM was as defined above and NH2 represented C-terminal amide) were used for a CDK9 inhibition assay. A CDK12 (aa686-1082)/cyclinK complex (50 nM) and “5-FAM-CDK9tide” (2 μM) as defined above were used for a CDK12 inhibition assay. A CDK2/cyclinE1 complex (0.5 nM) and “5-FAM-CDK7tide” (2 μM) as defined above were used for CDK2 inhibition assay.
as §2

[5] = CDK12/cyclinK 50 nM, read-out: CDK12 IC50

Chain of CDK7/cyclinH/MAT1 complex (P50613 whole entry, species assumed): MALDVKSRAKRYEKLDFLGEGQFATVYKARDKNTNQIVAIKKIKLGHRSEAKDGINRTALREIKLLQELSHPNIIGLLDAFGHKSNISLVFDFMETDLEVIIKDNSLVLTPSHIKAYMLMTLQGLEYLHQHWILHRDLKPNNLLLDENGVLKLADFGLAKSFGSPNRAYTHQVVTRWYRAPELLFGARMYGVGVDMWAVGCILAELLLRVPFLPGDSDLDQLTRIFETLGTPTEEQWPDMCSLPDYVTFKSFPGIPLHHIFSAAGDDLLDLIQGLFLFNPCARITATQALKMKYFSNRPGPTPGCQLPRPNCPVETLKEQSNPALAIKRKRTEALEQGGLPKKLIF
Chain of CDK7/cyclinH/MAT1 complex (P51946 whole entry partner, species assumed): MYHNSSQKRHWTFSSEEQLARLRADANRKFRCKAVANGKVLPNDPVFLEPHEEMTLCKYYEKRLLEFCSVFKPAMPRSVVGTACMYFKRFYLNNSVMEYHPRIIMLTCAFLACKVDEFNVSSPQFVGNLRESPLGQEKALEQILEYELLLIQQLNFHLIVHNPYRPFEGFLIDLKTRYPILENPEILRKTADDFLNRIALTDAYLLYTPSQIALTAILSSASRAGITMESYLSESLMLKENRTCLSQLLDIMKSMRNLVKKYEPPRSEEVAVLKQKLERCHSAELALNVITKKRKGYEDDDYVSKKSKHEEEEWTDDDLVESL
Chain of CDK7/cyclinH/MAT1 complex (P51948 whole entry partner, species assumed): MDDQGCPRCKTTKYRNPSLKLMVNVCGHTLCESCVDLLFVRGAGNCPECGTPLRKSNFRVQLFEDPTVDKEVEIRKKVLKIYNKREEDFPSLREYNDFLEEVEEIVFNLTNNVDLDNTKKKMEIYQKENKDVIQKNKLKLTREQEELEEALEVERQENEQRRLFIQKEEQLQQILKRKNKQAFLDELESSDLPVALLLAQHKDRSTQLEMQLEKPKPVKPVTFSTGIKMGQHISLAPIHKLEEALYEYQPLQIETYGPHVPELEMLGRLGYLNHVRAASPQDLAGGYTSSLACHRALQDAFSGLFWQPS

| IC50 [1] [nM] | IC50 [2] [nM] | IC50 [3] [nM] | IC50 [4, 5] [nM] | Compound | IC50 ([4]; CDK12 IC50, CDK12/cyclinK 50 nM) [nM] |
| --- | --- | --- | --- | --- | --- |
| 20 to 200 | 5000 to 50000 | 5000 to 50000 | 5000 to 50000 | FC(F)(F)c1cnc(NC2CCCC3(CCCN3)C2)nc1-c1c[nH]c2nc(N3CCOCC3)ccc12 (centres unmarked) [Compound 38, N-(4-(6-morpholinyl-1H-pyrrolo[2,3-b]pyridin-3-yl)-5-(trifluoromethyl)pyrimidin-2-yl)-1-azaspiro[4.5]decan-7-amine] | – |
| 20 to 200 | – | – | – | C[C@@H](CO)Nc1ncc(C(F)(F)F)c(-c2c[nH]c3nc(C4CCCCO4)ccc23)n1 (single isomer, unassigned) [Compound 183] | – |
| 20 to 200 | 5000 to 50000 | > 50000 | > 50000 | CP(C)(=O)c1cccc2c(-c3nc(NCC(O)C4CCC4)ncc3C(F)(F)F)c[nH]c12 (single isomer, unassigned) [Compound 139] | – |
| 20 to 200 | – | – | – | C[C@@H](CO)Nc1ncc(C(F)(F)F)c(-c2c[nH]c3nc(C4CCCCO4)ccc23)n1 (single isomer, unassigned) [Compound 184] | – |
| 20 to 200 | – | – | – | C[C@@H](CO)Nc1ncc(C(F)(F)F)c(-c2n[nH]c3c(P(C)(C)=O)cccc23)n1 [Compound 193, (S)-(3-(2-((1-hydroxypropan-2-yl)amino)-5-(trifluoromethyl)pyrimidin-4-yl)-1H-indazol-7-yl)dimethylphosphine oxide] | – |
| < 20 | – | – | – | CN(C)C[C@H]1CCCC1Nc1ncc(C(F)(F)F)c(-c2c[nH]c3c(P(C)(C)=O)cccc23)n1 (stereo in doubt) [Compound 134, (3-(2-((trans-2-((dimethylamino)methyl)cyclopentyl)amino)-5-(trifluoromethyl)pyrimidin-4-yl)-1H-indole-7-yl)dimethylphosphine oxide] | – |
| 20 to 200 | – | – | – | CP(C)(=O)c1cccc2c(-c3nc(N[C@H](CO)C4CCCCC4)ncc3C(F)(F)F)c[nH]c12 [Compound 169, (S)-(3-(2-((1-cyclohexyl-2-hydroxyethyl)amino)-5-(trifluoromethyl)pyrimidin-4-yl)-1H-indole-7-yl)dimethylphosphine oxide] | – |

The next lines start with the compound.

| Compound | IC50 [1] [nM] | IC50 [2] [nM] | IC50 [3] [nM] | IC50 [4, 5] [nM] | IC50 ([4]; CDK12 IC50, CDK12/cyclinK 50 nM) [nM] |
| --- | --- | --- | --- | --- | --- |
| CP(C)(=O)c1cccc2c(-c3nc(NC4CC(F)(F)CC4O)ncc3C(F)(F)F)c[nH]c12 (single isomer, unassigned) [Compound 192] | 20 to 200 | 5000 to 50000 | – | – | – |
| CP(C)(=O)c1cccc2c(-c3nc(NC4CC(F)(F)CC4O)ncc3C(F)(F)F)c[nH]c12 (single isomer, unassigned) [Compound 190] | 20 to 200 | – | – | – | – |
| CP(C)(=O)c1cccc2c(-c3nc(N[C@@H]4CC(F)(F)C[C@@H]4O)ncc3C(F)(F)F)c[nH]c12 (relative stereo) [Compound 187, (3-(2-(cis-4,4-difluoro-2-hydroxycyclopentylamino)-5-(trifluoromethyl)pyrimidin-4-yl)-1H-indole-7-yl)dimethylphosphine oxide] | 20 to 200 | – | – | – | – |
| FC(F)(F)c1cnc(NC2CCC3(CCNCC3)C2)nc1-c1c[nH]c2nc(N3CCOCC3)ccc12 (centres unmarked) [Compound 42, N-(4-(6-morpholinyl-1H-pyrrolo[2,3-b]pyridin-3-yl)-5-(trifluoromethyl)pyrimidin-2-yl)-8-azaspiro[4.5]decan-2-amine] | 20 to 200 | 5000 to 50000 | 5000 to 50000 | 5000 to 50000 | – |
| C[C@@H](CO)Nc1nccc(-c2c[nH]c3c(P(C)(C)=O)cccc23)n1 [Compound 186] | 5000 to 50000 | > 50000 | > 50000 | > 50000 | – |
| CP(C)(=O)c1cccc2c(-c3nc(NC4CCC[C@@H]4CN)ncc3C(F)(F)F)c[nH]c12 (stereo in doubt) [Compound 132, (3-(2-((trans-2-(aminomethyl)cyclopentyl)amino)-5-(trifluoromethyl)pyrimidin-4-yl)-1H-indole-7-yl)dimethylphosphine oxide] | < 20 | – | – | – | – |
| CP(C)(=O)c1cccc2c(-c3nc(N[C@@H]4CC(F)(F)C[C@H]4O)ncc3C(F)(F)F)c[nH]c12 (relative stereo) [Compound 188, (3-(2-(trans-4,4-difluoro-2-hydroxycyclopentylamino)-5-(trifluoromethyl)pyrimidin-4-yl)-1H-indole-7-yl)dimethylphosphine oxide] | < 20 | – | – | – | – |
| CN(C)C[C@@H]1CCCC1Nc1ncc(C(F)(F)F)c(-c2c[nH]c3c(P(C)(C)=O)cccc23)n1 (stereo in doubt) [Compound 133, (3-(2-((cis-2-((dimethylamino)methyl)cyclopentyl)amino)-5-(trifluoromethyl)pyrimidin-4-yl)-1H-indole-7-yl)dimethylphosphine oxide] | < 20 | – | – | – | – |
| CN(C)CC1CCCC1Nc1ncc(C(F)(F)F)c(-c2c[nH]c3c(P(C)(C)=O)cccc23)n1 (single isomer, unassigned) [Compound 136] | 20 to 200 | > 50000 | > 50000 | > 50000 | – |
| C[C@@H](CO)Nc1ncc(C(N)=O)c(-c2c[nH]c3c(P(C)(C)=O)cccc23)n1 [Compound 180, (S)-4-(7-(dimethylphosphoryl)-1H-indole-3-yl)-2-((1-hydroxypropan-2-yl)amino)pyrimidine-5-carboxamide] | 5000 to 50000 | > 50000 | > 50000 | > 50000 | – |
| CN[C@@H]1C[C@H]2O[C@@](C)([C@@H]1OC)n1c3ccccc3c3c4c(c5c6ccccc6n2c5c31)C(=O)NC4 [Staurosporine, staurosporine, reference compound] | – | – | – | – | 200 to 5000 |
| CP(C)(=O)c1cccc2c(-c3nc(NCC4(O)CCCCCC4)ncc3C(F)(F)F)c[nH]c12 [Compound 152] | 20 to 200 | – | – | – | – |
| CP(C)(=O)c1cccc2c(-c3nc(NC4CC(F)(F)CC4O)ncc3C(F)(F)F)c[nH]c12 (single isomer, unassigned) [Compound 189] | 20 to 200 | – | – | – | – |
| CCCC[C@H](CO)Nc1ncc(C(F)(F)F)c(-c2c[nH]c3c(P(C)(C)=O)cccc23)n1 [Compound 170, (R)-(3-(2-((1-hydroxyhexan-2-yl)amino)-5-(trifluoromethyl)pyrimidin-4-yl)-1H-indole-7-yl)dimethylphosphine oxide] | 20 to 200 | – | – | – | – |
| CP(C)(=O)c1cccc2c(-c3nc(NC4CCC[C@H]4CN)ncc3C(F)(F)F)c[nH]c12 (stereo in doubt) [Compound 131, (3-(2-((cis-2-(aminomethyl)cyclopentyl)amino)-5-(trifluoromethyl)pyrimidin-4-yl)-1H-indole-7-yl)dimethylphosphine oxide] | < 20 | – | – | – | – |
